Measured values from patent US11089783B2, “2-(het)aryl-substituted fused heterocycle derivatives as pesticides” (Bayer Aktiengesellschaft, priority 2017, dated 2021).

Assays:
Format in all cases: in vivo
Nezara viridula = Nezara viridula spray test (NEZARA / NEZAVI); conditions: Nezara viridula, 96 h, 4 dat, read-out: % efficacy
Experimental: (§1) [table] To produce an appropriate active ingredient formulation, 1 part by weight of active ingredient is dissolved with the specified parts by weight of solvent and made up with water containing an emulsifier concentration of 1000 ppm until the desired concentration is attained. To produce further test concentrations, the mixture is diluted with emulsifier-containing water. If addition of ammonium salts or/and penetrants is required, these are each added to the preparation solution in a concentration of 1000 ppm. Barley plants (Hordeum vulgare) infected with larvae of the southern green shield bug (Nezara viridula) are sprayed with an active ingredient formulation of the desired concentration. After the desired time, the efficacy in % is determined. 100% means that all bugs have been killed; 0% means that no bugs have been killed.

Phaedon cochleariae = Phaedon cochleariae spray test (PHAECO), Chinese cabbage leaf discs; set-up: key to repellent effect flag: REP = repellent effect; conditions: for pest or weed control at 100 g/ha: read-out: efficacy
Experimental: (§2) [table] To produce a suitable active ingredient formulation, 1 part by weight of active ingredient is dissolved with the specified parts by weight of solvent and made up to the desired concentration with water containing an emulsifier concentration of 1000 ppm. To produce further test concentrations, the formulation is diluted with emulsifier-containing water. Discs of Chinese cabbage leaves (Brassica pekinensis) are sprayed with an active ingredient formulation of the desired concentration and, after drying, populated with larvae of the mustard beetle (Phaedon cochleariae). After 7 days, the efficacy in % is determined. 100% means that all the beetle larvae have been killed; 0% means that no beetle larvae have been killed. [table] To produce an appropriate active ingredient formulation, 1 part by weight of active ingredient is dissolved with the stated parts by weight of solvent and made up with water containing an emulsifier concentration of 1000 ppm until the desired concentration is attained. For production of further test concentrations, the mixture is diluted with emulsifier-containing water. Discs of chinese cabbage leaves (Brassica pekinensis) are sprayed with an active ingredient formulation of the desired concentration and, after drying, populated with larvae of the mustard beetle (Phaedon cochleariae). After the desired time, the efficacy in % is determined. 100% means that all beetle larvae have been killed; 0% means that no beetle larvae have been killed.

Myzus persicae [1] = assay: Myzus persicae oral test; conditions: 120 h, after 5 days, read-out: efficacy
Experimental: [table] To produce a suitable active ingredient formulation, 1 part by weight of active ingredient is dissolved with the stated parts by weight of solvent and made up to the desired concentration with water. 50 μl of the active ingredient preparation are transferred into microtitre plates and made up to a final volume of 200 μl with 150 μl of IPL41 insect medium (33%+15% sugar). Subsequently, the plates are sealed with parafilm, which a mixed population of green peach aphids (Myzus persicae) within a second microtitre plate is able to puncture and imbibe the solution. After 5 days, the efficacy in % is determined. 100% means that all the aphids have been killed; 0% means that no aphids have been killed.

Myzus persicae [2] = assay: Myzus persicae spray test (MYZUPE), Chinese cabbage leaf discs; conditions: for pest or weed control at 20 g/ha / pest or weed control at 100 g/ha: Myzus persicae, foliar, 120 h, 5 days (5 dat), read-out: efficacy
Experimental: as §2, with “pekinensis) infested by all stages of the green peach aphid (Myzus persicae)” for “pekinensis)”, “concentration.” for “concentration and, after drying, populated with larvae of the mustard beetle (Phaedon cochleariae).”, “5” for “7”, “aphids” for “beetle larvae”

Lucilia cuprina = Lucilia cuprina test; conditions: 48 h, L1 larvae, after 2 days, read-out: efficacy (kill)
Experimental: Solvent: dimethyl sulfoxide To produce a suitable active ingredient formulation, 10 mg of active ingredient are mixed with 0.5 ml of dimethyl sulfoxide, and the concentrate is diluted with water to the desired concentration. About 20 L1 larvae of the Australian sheep blowfly (Lucilia cuprina) are transferred into a test vessel containing minced horsemeat and the active ingredient formulation of the desired concentration. After 2 days, the kill in % is determined. 100% means that all the larvae have been killed; 0% means that no larvae have been killed.

Meloidogyne incognita = Meloidogyne incognita test (MELGIN); conditions: 14 days (14 dat); for pest or weed control at 20 ppm: Meloidogyne incognita, 336 h, read-out: efficacy (nematicidal, gall formation)
Experimental: [table] To produce a suitable active ingredient formulation, 1 part by weight of active ingredient is mixed with the stated amount of solvent and the concentrate is diluted to the desired concentration with water. Vessels are filled with sand, active ingredient solution, an egg/larvae suspension of the southern root-knot nematode (Meloidogyne incognita) and lettuce seeds. The lettuce seeds germinate and the plants develop. The galls develop on the roots. After 14 days, the nematicidal efficacy in % is determined by the formation of galls. 100% means that no galls were found; 0% means that the number of galls on the treated plants corresponds to the untreated control. [table] To produce an appropriate active ingredient formulation, 1 part by weight of active ingredient is mixed with the specified amount of solvent and the concentrate is diluted to the desired concentration with water. Vessels are filled with sand, active ingredient solution, an egg/larvae suspension of the southern root-knot nematode (Meloidogyne incognita) and lettuce seeds. The lettuce seeds germinate and the plants develop. The root-knots develop on the roots. After the desired time, the nematicidal effect is determined from the formation of root-knots in %. 100% means that no root-knots were found; 0% means that the number of root-knots on the treated plants corresponds to that on the untreated control.

Nilaparvata lugens = Nilaparvata lugens spray test (NILALU); conditions: 4 g/ha, 4 dat
Experimental: as §1, with “Rice” for “Barley”, “(Oryza sativa)” for “(Hordeum vulgare) infected with larvae of the southern green shield bug (Nezara viridula)”, “concentration and then populated with larvae of the brown planthopper (Nilaparvata lugens).” for “concentration.”, “planthoppers” for “bugs”

Aphis gossypii = Aphis gossypii spray test (APHIGO), cotton plants; conditions: 6 dat; for Emax at 0.8 ppm: Aphis gossypii, 144 h, read-out: % efficacy
Experimental: as §1, with “Cotton” for “Barley”, “(Gossypium hirsutum) severely infested by” for “(Hordeum vulgare) infected with larvae of”, “cotton aphid (Aphis gossypii)” for “southern green shield bug (Nezara viridula)”, “kill” for “efficacy”, “aphids” for “bugs”

Myzus persicae [3] = assay: Myzus persicae spray test (MYZUPE S), bell pepper plants; conditions: 144 h, 0.8 ppm, 6 dat, read-out: % efficacy
Experimental: [table] To produce an appropriate active ingredient formulation, 1 part by weight of active ingredient is dissolved with the specified parts by weight of solvent and made up with water containing an emulsifier concentration of 1000 ppm until the desired concentration is attained. To produce further test concentrations, the mixture is diluted with emulsifier-containing water. If addition of ammonium salts or/and penetrants is required, these are each added to the preparation solution in a concentration of 1000 ppm. Bell pepper plants (Capsicum annuum) severely infested by the green peach aphid (Myzus persicae) are treated by spraying with the active ingredient formulation in the desired concentration. After the desired time, the kill in % is determined. 100% means that all the animals have been killed; 0% means that no animals have been killed.

[4] = Phaedon cochleariae, foliar, 168 h, 100 g/ha, 7 days (7 dat)
[5] = Phaedon cochleariae, foliar, 168 h, PHAECO, 20 g/ha, 7 dat, read-out: % efficacy
[6] = Phaedon cochleariae, foliar, 168 h, PHAECO, 20 g/ha, 7 dat

SMILES	pest or weed control at 100 g/ha (Phaedon cochleariae; [4]) [%]	Emax at 20 g/ha (Phaedon cochleariae; [5]) [%]	pest or weed control at 0.8 ppm (Myzus persicae [1]) [%]	pest or weed control at 20 g/ha (Myzus persicae [2]) [%]	pest or weed control at 100 g/ha (Myzus persicae [2]) [%]	percent efficacy (larval mortality) at a fixed application rate at 20 g/ha (Phaedon cochleariae; [6]) [%]	also measured
CCNC(=O)Nc1ccc(S(=O)(=O)CC)c(-c2nc3cc(C(F)(F)F)nnc3n2C)n1 [reference compound]	50	67	–	–	–	–	Emax at 4 g/ha (Nezara viridula): 0%; Emax at 4 g/ha (Phaedon cochleariae; Phaedon cochleariae, foliar, 168 h, PHAECO, 4 g/ha, 7 dat, read-out: % efficacy): 0%
CNC(=O)c1ccc(S(C)(=O)=O)c(-c2nc3cc(C(F)(F)C(F)(F)F)nnc3n2C)n1 [Example I-06]	67	–	100	70	90	–	pest or weed control at 100 ppm (Lucilia cuprina): 95%
CCS(=O)(=O)c1ccc(C(=O)NC)nc1-c1nc2cc(C(F)(F)C(F)(F)F)nnc2n1C [Ex. I-39 from WO2017/025419, reference compound]	–	–	–	–	–	–	efficacy (nematicidal, gall formation) (Meloidogyne incognita; 20 ppm): 0%; % efficacy (Nilaparvata lugens): 0%; efficacy (Phaedon cochleariae; 100 g/ha, 7 days (7 dat)): 0%; % efficacy (Phaedon cochleariae; PHAECO, 20 g/ha, 7 dat): 0%; % efficacy (Myzus persicae [2]; MYZUPE, 4 g/ha, 5 dat): 0%; % efficacy (Aphis gossypii; 0.8 ppm): 0%; % efficacy (Aphis gossypii; 4 ppm): 55%
Cn1c(-c2nc(C(=O)NC3CC3)ccc2S(C)(=O)=O)nc2cc(C(F)(F)C(F)(F)F)nnc21 [Example I-07]	100	–	90	–	–	100	repellent effect flag (Phaedon cochleariae; PHAECO, 20 g/ha, 7 dat): REP
CCS(=O)(=O)c1ccc(C(=O)N(C)C)nc1-c1nc2cc(C(F)(F)C(F)(F)F)nnc2n1C [Example I-05]	100	–	100	90	90	–	Emax at 0.8 ppm (Myzus persicae [3]): 95%; pest or weed control at 100 ppm (Lucilia cuprina): 100%; Emax at 0.8 ppm (Aphis gossypii; 0.8 ppm): 65%
CNC(=O)c1ccc(S(C)(=O)=O)c(-c2nc3cc(C(F)(F)F)nnc3n2C)n1 [reference compound]	0	–	–	0	0	–	–
CCS(=O)(=O)c1ccc(N(C)C(=O)N(C)C)nc1-c1nc2cc(C(F)(F)F)nnc2n1C [reference compound]	0	–	–	–	–	0	Emax at 0.8 g/ha (Nezara viridula): 0%; Emax at 4 g/ha (Nezara viridula): 50%
CCNC(=O)c1ccc(S(C)(=O)=O)c(-c2nc3cc(C(F)(F)C(F)(F)F)nnc3n2C)n1 [Example I-14]	100	83	90	–	–	–	pest or weed control at 100 ppm (Lucilia cuprina): 90%
CCS(=O)(=O)c1ccc(C(=O)N(C)C)nc1-c1nc2cc(C(F)(F)F)nnc2n1C [reference compound]	33	–	–	–	–	–	Emax at 0.8 ppm (Myzus persicae [3]): 50%; Emax at 0.8 ppm (Aphis gossypii; 0.8 ppm): 0%
CN(C)C(=O)Nc1ccc(S(C)(=O)=O)c(-c2nc3cc(C(F)(F)F)nnc3n2C)n1 [reference compound]	0	–	–	0	0	0	pest or weed control at 20 ppm (Meloidogyne incognita): 0%
Cn1c(-c2nc(C(=O)NC3CC3)ccc2S(C)(=O)=O)nc2cc(C(F)(F)F)nnc21 [reference compound]	50	0	–	–	–	–	–
CCNC(=O)c1ccc(S(C)(=O)=O)c(-c2nc3cc(C(F)(F)F)nnc3n2C)n1 [reference compound]	0	–	–	–	–	0	–
CCS(=O)(=O)c1ccc(N(C)C(=O)N(C)C)nc1-c1nc2cc(C(F)(F)C(F)(F)F)nnc2n1C [Example I-15]	100	83	100	90	100	–	pest or weed control at 20 ppm (Meloidogyne incognita): 90%; Emax at 0.8 g/ha (Nezara viridula): 80%; Emax at 4 g/ha (Nezara viridula): 100%
